# pIC50: −log10 of the molar value.
# Molecular target: PIK3CA (human) (UniProt P42336)
# Test: Assessment of PI3KCA Kinase Activity
# Sequence of PIK3CA (human) (P42336 whole entry, looked up): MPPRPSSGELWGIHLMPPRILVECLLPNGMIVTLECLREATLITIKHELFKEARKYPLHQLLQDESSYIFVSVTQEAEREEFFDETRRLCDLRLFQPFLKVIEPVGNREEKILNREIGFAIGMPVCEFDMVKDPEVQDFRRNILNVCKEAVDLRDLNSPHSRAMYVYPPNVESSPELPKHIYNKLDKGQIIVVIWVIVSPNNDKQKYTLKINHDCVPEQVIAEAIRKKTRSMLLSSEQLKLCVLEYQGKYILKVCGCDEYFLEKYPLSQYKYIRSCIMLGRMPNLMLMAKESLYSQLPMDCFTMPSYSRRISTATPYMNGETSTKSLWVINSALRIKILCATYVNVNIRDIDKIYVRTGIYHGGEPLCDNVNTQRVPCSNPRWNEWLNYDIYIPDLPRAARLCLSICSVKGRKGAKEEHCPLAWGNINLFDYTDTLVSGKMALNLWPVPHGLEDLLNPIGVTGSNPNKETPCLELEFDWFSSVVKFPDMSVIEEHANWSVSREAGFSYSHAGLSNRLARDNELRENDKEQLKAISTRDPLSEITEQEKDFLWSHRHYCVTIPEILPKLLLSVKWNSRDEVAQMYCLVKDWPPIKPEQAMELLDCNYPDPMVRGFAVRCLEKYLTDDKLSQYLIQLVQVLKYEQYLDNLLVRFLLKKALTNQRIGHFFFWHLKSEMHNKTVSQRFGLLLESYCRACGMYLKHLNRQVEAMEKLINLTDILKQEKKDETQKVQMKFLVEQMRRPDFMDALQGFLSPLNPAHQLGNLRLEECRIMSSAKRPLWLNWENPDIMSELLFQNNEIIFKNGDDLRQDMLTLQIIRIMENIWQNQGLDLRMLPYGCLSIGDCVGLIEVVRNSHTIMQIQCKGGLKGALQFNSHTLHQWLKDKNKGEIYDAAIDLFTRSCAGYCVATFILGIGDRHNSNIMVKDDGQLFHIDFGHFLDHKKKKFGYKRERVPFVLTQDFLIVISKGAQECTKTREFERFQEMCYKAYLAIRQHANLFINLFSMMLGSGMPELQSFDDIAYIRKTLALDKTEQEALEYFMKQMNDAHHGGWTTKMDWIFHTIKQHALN
row,SMILES,pIC50
1,CC(=O)Nc1cc(-c2nc(-c3ccc(Cl)cc3Cl)c(-c3ncc[nH]3)s2)c(C)cn1,6.00 to 7.00
2,Cc1nn2ccccc2c1-c1nc(-c2ccccc2OCc2ccccc2)c(-c2nc[nH]n2)s1,6.00 to 7.00
3,COCCCNc1nccc(-c2sc(-c3nnc[nH]3)c(-c3ccc(Cl)cc3Cl)c2C#N)n1,> 7.00
4,COc1ccc(-c2nc(-c3ccnc(NC(C)=O)c3)sc2-c2ncc[nH]2)c(Cl)c1,> 7.00
5,N#Cc1c(-c2cc(N)nc(F)c2)sc(-c2nnc[nH]2)c1-c1ccc(Cl)cc1Cl,6.00 to 7.00
6,COCCNc1cc(-c2sc(-c3nnc[nH]3)c(-c3ccc(Cl)cc3Cl)c2C#N)ccn1,6.00 to 7.00
7,Cc1nn2ccc(OCCO)cc2c1-c1nc(-c2ccccc2)c(-c2nnc[nH]2)s1,> 7.00
8,Cc1nn2ccc(OCCNC(=O)C(C)(C)C)cc2c1-c1nc(-c2ccccc2)c(-c2nc[nH]n2)s1,> 7.00
9,CC(=O)Nc1cc(-c2nc(-c3ccc(Cl)cc3)c(-c3ncc[nH]3)s2)ccn1,6.00 to 7.00
10,CCOc1nc(-c2ccnc(NC(=O)C3CCCC3)c2)sc1-c1nnc[nH]1,6.00 to 7.00
11,COc1ccc(-c2ccc3nc(C)c(-c4nc(-c5ccccc5)c(-c5nc[nH]n5)s4)n3c2)cc1OC,> 7.00
12,CCOc1nc(-c2ccnc(NC(=O)Cc3ccccc3)c2)sc1-c1nnc[nH]1,6.00 to 7.00
13,Cc1nn2ccccc2c1-c1nc(-c2ccccc2Cl)c(-c2nnc[nH]2)s1,> 7.00
14,COc1ncccc1-c1nc(-c2ccnc(NC(C)=O)c2)sc1-c1nnc[nH]1,6.00 to 7.00
15,CC(=O)Nc1cc(-c2nc(-c3ccc(Cl)cc3Cl)c(-c3nnc[nH]3)s2)ccn1,> 7.00
16,Cc1nn2ccccc2c1-c1cc(-c2ccccc2)c(-c2nnc[nH]2)s1,> 7.00
17,N#Cc1c(-c2ccnc(N)c2)sc(-c2cnn[nH]2)c1-c1ccc(Cl)cc1Cl,6.00 to 7.00
18,CC(=O)Nc1cc(-c2nc(-c3ccccc3)c(-c3ncc[nH]3)s2)ccn1,6.00 to 7.00
19,COc1ccc(F)c(F)c1-c1nc(-c2c(C)nn3ccccc23)sc1-c1nc[nH]n1,6.00 to 7.00

row,SMILES,pIC50
1,CC(=O)Nc1cc(-c2sc(-c3nccn3C)c(-c3ccc(Cl)cc3Cl)c2C#N)ccn1,6.00 to 7.00
2,CC(=O)Nc1cc(-c2sc(-c3nnc[nH]3)c(-c3ccc(Cl)cc3Cl)c2C#N)c(F)cn1,6.00 to 7.00
3,COC(=O)Nc1cc(-c2cc(-c3ccc(Cl)cc3Cl)c(-c3ncc[nH]3)s2)ccn1,> 7.00
4,CCOc1nc(-c2ccnc(NC(=O)c3cccc(OC)c3)c2)sc1-c1nnc[nH]1,6.00 to 7.00
5,Cc1nc2ccc(CCCN)cn2c1-c1nc(-c2ccccc2)c(-c2nnc[nH]2)s1,> 7.00
6,COc1cccc(F)c1-c1nc(-c2c(C)nn3ccc(OCCN4CCOCC4)cc23)sc1-c1nc[nH]n1,> 7.00
7,Cc1nn2ccc(OCCN3CCNC(=O)C3)cc2c1-c1nc(-c2ccccc2)c(-c2nc[nH]n2)s1,> 7.00
8,CC(=O)Nc1cc(-c2sc(-c3nccn3Cc3ccccc3)c(-c3ccc(Cl)cc3Cl)c2C#N)ccn1,> 7.00
9,Cc1nn2ccc(OCCN3CCC(O)CC3)cc2c1-c1nc(-c2ccccc2)c(-c2nc[nH]n2)s1,> 7.00
10,N#Cc1c(-c2ccnc(N)c2)sc(-c2ncc[nH]2)c1-c1ccc(Cl)cc1Cl,> 7.00
11,Cc1nn2ccc(OCCN3CCOCC3)cc2c1-c1nc(-c2ccccc2F)c(-c2nc[nH]n2)s1,> 7.00
12,CCNc1nccc(-c2sc(-c3nnc[nH]3)c(-c3ccc(Cl)cc3Cl)c2C#N)n1,> 7.00
13,Cc1nn2ccccc2c1-c1nc(C2CCCCC2)c(-c2nnc[nH]2)s1,> 7.00
14,O=C(Nc1cc(-c2cc(-c3ccc(Cl)cc3Cl)c(-c3ncc[nH]3)s2)ccn1)C1CC1,> 7.00
15,CC(=O)Nc1cc(-c2cc(-c3ccc(Cl)cc3Cl)c(-c3ncc[nH]3)s2)ccn1,> 7.00
16,Cc1nc2ccc(CCN)cn2c1-c1nc(-c2ccccc2)c(-c2nnc[nH]2)s1,> 7.00
17,Cc1nc(NC(=O)C2CC2)sc1-c1nc(-c2ccccc2)c(-c2nc[nH]n2)s1,> 7.00
18,CC(=O)Nc1cc(-c2nc(-c3cccc(OC(F)(F)F)c3)c(-c3ncc[nH]3)s2)ccn1,6.00 to 7.00
19,Cc1nc2ccc(C(O)CO)cn2c1-c1nc(-c2ccccc2)c(-c2nnc[nH]2)s1 (stereo not drawn),> 7.00
